ChEMBL document CHEMBL1201862, “PubChem BioAssay data set” (2004)
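In this assay, cells in 96-well plates receive the compound at five concentrations for 48 hours. Endpoints are linearly interpolated between the surrounding concentrations. The concentration for 50% growth inhibition is given as GI50.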 Activity calls are given as the source filed them. Rule as the data show it: active = GI50 up to about 1.1 µM and inactive = higher.

Columns and labels:
Experiment in all cases: NCI anticancer screen, dose series, 48 h
MDA-MB-231 = system: MDA-MB-231
Hs-578T = system: Hs-578T
TK-10 = system: TK-10
LOX IMVI = system: LOX IMVI
SF-268 = system: SF-268
SF-295 = system: SF-295
SK-MEL-28 = system: SK-MEL-28
OVCAR-4 = system: OVCAR-4
M14 = system: M14
DU-145 = system: DU-145
HL-60 = system: HL-60
MDA-MB-435 = system: MDA-MB-435
SW-620 = system: SW-620
MDA-N = system: MDA-N
ACHN = system: ACHN
K562 = system: K562
NCI-H522 = system: NCI-H522
CAKI-1 = system: CAKI-1

Compound | GI50 (MDA-MB-231) | GI50 (Hs-578T) | GI50 (TK-10) | GI50 (LOX IMVI) | GI50 (SF-268) | GI50 (SF-295) | GI50 (SK-MEL-28) | GI50 (OVCAR-4) | GI50 (M14) | GI50 (DU-145) | GI50 (HL-60) | GI50 (MDA-MB-435) | GI50 (SW-620) | GI50 (MDA-N) | GI50 (ACHN) | GI50 (K562) | GI50 (NCI-H522) | GI50 (CAKI-1)
Nc1ncnc2c1ncn2C1CCC(CP(=O)(O)O)C1 (configuration not stated) | > 100 µM (inactive) | > 100 µM (inactive) | > 100 µM (inactive) | > 100 µM (inactive) | > 100 µM (inactive) | > 100 µM (inactive) | > 100 µM (inactive) | > 100 µM (inactive) | > 100 µM (inactive) | > 100 µM (inactive) | > 100 µM (inactive) | > 100 µM (inactive) | > 100 µM (inactive) | > 100 µM (inactive) | > 100 µM (inactive) |  |  | 
CNc1ncnc2c1ncn2C1C=CC(COS(N)(=O)=O)C1 (configuration not stated) |  | > 100 µM (inactive) |  | > 100 µM (inactive) | > 100 µM (inactive) | > 100 µM (inactive) | > 100 µM (inactive) | > 100 µM (inactive) | > 100 µM (inactive) | > 100 µM (inactive) | > 100 µM (inactive) | > 100 µM (inactive) | > 100 µM (inactive) | > 100 µM (inactive) | > 100 µM (inactive) | > 100 µM (inactive) | > 100 µM (inactive) | > 100 µM (inactive)
CN(c1c(Cl)cccc1Cl)S(=O)(=O)c1ccccc1[N+](=O)[O-] |  | > 100 µM (inactive) | > 100 µM (inactive) | > 100 µM (inactive) | > 100 µM (inactive) | > 100 µM (inactive) | > 100 µM (inactive) | > 100 µM (inactive) | > 100 µM (inactive) | > 100 µM (inactive) | > 10 µM (inactive) | > 100 µM (inactive) | > 100 µM (inactive) | > 100 µM (inactive) | > 100 µM (inactive) |  | > 100 µM (inactive) | > 100 µM (inactive)
CCC(C)C(NC(=O)c1c2ccccc2nc2ccccc12)C(=O)O (configuration not stated) | > 100 µM (inactive) |  | > 100 µM (inactive) | 74 µM (inactive) | > 100 µM (inactive) | > 100 µM (inactive) | > 100 µM (inactive) | > 100 µM (inactive) | > 100 µM (inactive) | > 100 µM (inactive) |  | 79.1 µM (inactive) | > 100 µM (inactive) |  | > 100 µM (inactive) | > 100 µM (inactive) | > 100 µM (inactive) | > 100 µM (inactive)
N=C(/C=C/c1ccc(-c2cn3cc(/C=C/C(=N)N4CCOCC4)ccc3n2)cc1)N1CCOCC1 | > 100 µM (inactive) | > 100 µM (inactive) | > 100 µM (inactive) |  | > 100 µM (inactive) | > 100 µM (inactive) | > 100 µM (inactive) | > 100 µM (inactive) | > 100 µM (inactive) | > 100 µM (inactive) |  | > 100 µM (inactive) | > 100 µM (inactive) | > 100 µM (inactive) | > 100 µM (inactive) | > 100 µM (inactive) | 62.8 µM (inactive) | > 100 µM (inactive)
CN(C)c1ccc(C=C2N=C(c3ccccc3)N(c3cc(C(=O)c4ccccc4)ccc3N3C(=O)/C(=C/c4ccc(N(C)C)cc4)N=C3c3ccccc3)C2=O)cc1 | 14.1 µM (inactive) | 4.2 µM (inactive) | 23.8 µM (inactive) | 5.98 µM (inactive) | 14.4 µM (inactive) | 3.76 µM (inactive) | > 100 µM (inactive) | 7.21 µM (inactive) | 4.95 µM (inactive) | 5.74 µM (inactive) | 5.01 µM (inactive) | 1.9 µM (inactive) | 5.32 µM (inactive) | 2.16 µM (inactive) | 6.31 µM (inactive) | 3.95 µM (inactive) |  | 14 µM (inactive)
Cc1n[n+](Cc2ccccc2)c2sc(N)nn12 |  | > 100 µM (inactive) | > 100 µM (inactive) | > 100 µM (inactive) | 35.3 µM (inactive) | > 100 µM (inactive) | > 100 µM (inactive) | > 100 µM (inactive) | > 100 µM (inactive) | > 100 µM (inactive) |  | > 100 µM (inactive) | 64.6 µM (inactive) | > 100 µM (inactive) | > 100 µM (inactive) | 76.7 µM (inactive) | 30 µM (inactive) | > 100 µM (inactive)
COC(=O)[C@H](C)NC(=O)[C@H](CSC)N1C(=O)N[C@@H](C(C)C)C1=O | > 100 µM (inactive) |  | > 100 µM (inactive) | > 100 µM (inactive) |  | > 100 µM (inactive) | > 100 µM (inactive) | > 100 µM (inactive) | > 100 µM (inactive) | > 100 µM (inactive) |  | > 100 µM (inactive) | > 100 µM (inactive) | > 100 µM (inactive) | > 100 µM (inactive) | 85.5 µM (inactive) | > 100 µM (inactive) | > 100 µM (inactive)
COc1cc2c[n+](C)c3c4cc(OC)c(OC)cc4c(OCc4ccccc4)cc3c2cc1OC | 2.32 µM (inactive) |  | > 31.6 µM (inactive) | 1.31 µM (inactive) | 0.0432 µM (active) | 4.89 µM (inactive) | 1.24 µM (inactive) | 2.02 µM (inactive) | 1.77 µM (inactive) | 1.08 µM (active) |  | 1.09 µM (active) | 0.805 µM (active) | 0.982 µM (active) | > 69.3 µM (inactive) | 1.83 µM (inactive) | 0.155 µM (active) | > 39.2 µM (inactive)
